Measurements published in paper PMC3669624 (Molecular Cancer, 2013).
Like-named read-outs stand apart in the source and are kept apart here.

What was measured:
5637 = assay: Cell anti-proliferative effect (MTT test); type: cell-based; details: Homo sapiens, 48 h, read-out: EC50 antiproliferative effect
Procedure: (§1) UMUC-3, 5637, TCC sup cells and J82 (ATCC, Manassas, VA, USA), derived from human transitional cell carcinoma of the bladder, were routinely cultured in MEM supplemented with 10% fetal bovine serum, 2 mM glutamine, 100 U/mL penicillin, 100 μg/mL streptomycin, 1X NEAA and 1 mM sodium pyruvate. All components were purchased form Invitrogen Corportion (Cergy Pontoise, France), in a humidified incubator at 37°C with a 5% CO2 atmosphere. Caco-2 (IRCCS “S. De Bellis”, Castellana Grotte, Italy), MDCK-MDR1, MDCK-MRP1 (gift of Prof. P. Borst, NKI-AVL Institute, Amsterdam, Netherlands) and MDCK-BCRP cells (gift of Dr. A. Schinkel, NKI-AVL Institute, Amsterdam, Netherlands) were grown in DMEM medium with 10% heat-inactivated fetal calf serum, 100 U/mL penicillin, 100 μg/mL streptomycin and 2 mM L-glutamine (Invitrogen) in a humidified incubator at 37°C with a 5% CO2 atmosphere. The cells were trypsinized twice a week with trypsin/ethylenediaminetetraacetic acid (EDTA) (0.05%/0.02%) and the medium was changed twice a week.
(§2) Afterwords, 10 μl of 3-[4,5-dimethylthiazol-2-yl]-2,5-diphenyltetrazoliumbromide (MTT) freshly prepared solution (5 mg/ml in PBS) (Sigma) was added in each well, and the plate was incubated in a humidified atmosphere 5% CO2 at 37° for 3–4 h. MTT solution was removed and 200 μL of EtOH/DMSO (1:1) was added to each well to dissolve the blue formazan solid crystals. The optical density was measured at 570 nm and 650 nm wavelenghts using Victor3 (PerkinElmer, Waltham, MA, USA). The results are expressed as EC50 values, obtained from non-linear iterative curve fitting by Prism v.3.0, GraphPad software (GraphPad Software, Inc. San Diego, USA).

J82 = assay: Cell anti-proliferative effect (MTT test); type: cell-based; details: Homo sapiens, read-out: EC50 antiproliferative effect
Procedure: as §1, §2

TCC sup = assay: Cell anti-proliferative effect (MTT test); type: cell-based; details: Homo sapiens, 48 h, read-out: EC50 antiproliferative effect
Procedure: as §1, §2

UMUC3 = assay: Cell anti-proliferative effect (MTT test); type: cell-based; details: Homo sapiens, read-out: EC50 antiproliferative effect
Procedure: as §1, §2

UMUC-3- CX = assay: Cell anti-proliferative effect (MTT test); type: cell-based, human; details: for EC50: Homo sapiens, read-out: EC50 antiproliferative effect
Procedure: as §1
The pSG5-COX-2 plasmid, which contains a full-length human COX-2 cDNA in the pSG expression vector [23], was used for COX-2 transfection. The plasmid DNA was introduced into UMUC-3 cells using Lipofectamine LTX (Invitrogen). Briefly, 2.5 μg of plasmid DNA and 6.25 μl of Lipofectamine LTX were combined in 500 μl of OpTI-MEM*I reduced serum medium (Invitrogen) and allowed to stand at room temperature for 30 minutes. UMUC-3 cells were plated at 1X105 cells/well in six-well plates. After overnight attachment, the Lipofectamine mixture was applied to cells. After 5 hours of transfection, the medium was removed and complete medium was added. After 48 hours, geneticin G418 (Invitrogen) was added to cells at a concentration of […]. Cell lines were obtained from individual colonies using cloning cylinders. UMUC-3-CX overexpressing cells were obtained and were continuously cultured in complete medium with the addition of 800 μg/ml G418.
as §2

5637 si-CX = assay: Cell anti-proliferative effect (MTT test); type: cell-based; details: Homo sapiens, 48 h, read-out: EC50 antiproliferative effect
Procedure: UMUC-3, 5637, TCC sup cells and J82 (ATCC, Manassas, VA, USA), derived from human transitional cell carcinoma of the bladder, were routinely cultured in MEM supplemented with 10% fetal bovine serum, 2 mM glutamine, 100 U/mL penicillin, 100 μg/mL streptomycin, 1X NEAA and 1 mM sodium pyruvate. All components were purchased form Invitrogen Corportion (Cergy Pontoise, France), in a humidified incubator at 37°C with a 5% CO2 atmosphere. Caco-2 (IRCCS “S. De Bellis”, Castellana Grotte, Italy), MDCK-MDR1, MDCK-MRP1 (gift of Prof. P. Borst, NKI-AVL Institute, Amsterdam, Netherlands) and MDCK-BCRP cells (gift of Dr. A. Schinkel, NKI-AVL Institute, Amsterdam, Netherlands) were grown in DMEM medium with 10% heat-inactivated fetal calf serum, 100 U/mL penicillin, 100 μg/mL streptomycin and 2 mM L-glutamine (Invitrogen) in a humidified incubator at 37°C with a 5% CO2 atmosphere. […]
as §2, with “MTT solution was removed and 200 μL of EtOH/DMSO (1:1) was added to each well to dissolve the blue formazan solid crystals.” left out

P-gp = P-gp (Homo sapiens, UniProt P08183); assay: Drug transport experiment, Caco-2 monolayer apparent permeability; type: in vitro ADME
Caco-2 cells = assay: Cell ATP availability assay; type: cell-based
Procedure: Caco-2 cells were seeded into 96-well microplate in 100 μL of complete medium at a density 2×10^4 cells/well. The plate was incubated O/N in a humidified atmosphere (5% CO2 at 37°C). The medium was removed and 100 μL of complete medium were added, in the presence or absence of different concentrations of test compounds. The plate was again incubated for 2 h in a humidified atmosphere. Then, 50 μl of mammalian cell lysis solution were added to all wells and the plate stirred for 5 min in an orbital shaker. In all wells, 50 μl of substrate solution were added, and the plate stirred for 5 min as above reported. The plate was dark adapted for 10 min and the luminescence measured in Victor3 (PerkinElmer) [26].

UMUC-3 cells = assay: Intracellular mitomycin C accumulation (flow cytometry); type: cell-based, human; details: UMUC-3, 1 day celecoxib then 1 day MMC and celecoxib
Procedure: (§3) After incubation, the cell medium was removed and trypsin/EDTA was used to detach the cells from the plates. Cells were harvested, washed twice in ice-cold PBS (pH 7.4), and placed on ice (<1 hour) until analysis. Analysis was performed using a 530/30 filter (FL1-H [height of fluorescence intensity]). Fluorescence measurements of individual cells were done with a Becton Dickinson FACScan equipped with an […] argon laser. Analysis was gated to include single cells, based on forward and side light scatter, and was based on the acquisition of data from 10,000 cells.

UMUC-3-CX cells = assay: as above; type: cell-based, human; details: 1 day celecoxib then 1 day MMC and celecoxib
Procedure: as §3

MRP1 = MRP1 (Homo sapiens, UniProt P33527); assay: cell-based
Procedure: (§4) The method was adapted from Eneroth et al. [27] and Korjamo et al. [28] with minor modifications. Briefly, each cell line was seeded into a black Cultureplate (PerkinElmer) 96/wells plate with 100 μl medium and allowed to become confluent overnight. Test compounds were solubilized in 100 μl of culture medium and added. […] In treated wells the increase of fluorescence as compared to basal level was measured. The half maximal effective concentration (EC50) values were determined by fitting the fluorescence increase percentage versus log[dose]

BCRP = target: T1, BCRP (Homo sapiens, UniProt Q9UNQ0); assay: cell-based
T1 sequence (Q9UNQ0 1-655): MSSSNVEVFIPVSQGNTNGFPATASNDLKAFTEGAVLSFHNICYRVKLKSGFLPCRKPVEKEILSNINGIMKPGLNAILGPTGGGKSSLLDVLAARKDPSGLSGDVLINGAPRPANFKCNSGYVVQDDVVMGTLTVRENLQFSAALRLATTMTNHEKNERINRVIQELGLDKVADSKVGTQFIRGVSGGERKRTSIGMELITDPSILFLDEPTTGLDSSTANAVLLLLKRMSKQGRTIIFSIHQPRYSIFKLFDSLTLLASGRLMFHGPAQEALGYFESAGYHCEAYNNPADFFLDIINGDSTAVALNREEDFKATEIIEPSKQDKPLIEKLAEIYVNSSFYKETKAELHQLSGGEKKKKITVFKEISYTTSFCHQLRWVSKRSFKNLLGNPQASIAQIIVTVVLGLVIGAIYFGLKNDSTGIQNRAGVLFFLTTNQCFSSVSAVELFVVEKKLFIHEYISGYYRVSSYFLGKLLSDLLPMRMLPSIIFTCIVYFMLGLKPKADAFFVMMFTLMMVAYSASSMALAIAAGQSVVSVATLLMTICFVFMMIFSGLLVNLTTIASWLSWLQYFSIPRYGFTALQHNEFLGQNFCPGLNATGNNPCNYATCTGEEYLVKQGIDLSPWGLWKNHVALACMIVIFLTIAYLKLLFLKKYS
Procedure: as §4

Chain of P-gp (P08183 whole entry): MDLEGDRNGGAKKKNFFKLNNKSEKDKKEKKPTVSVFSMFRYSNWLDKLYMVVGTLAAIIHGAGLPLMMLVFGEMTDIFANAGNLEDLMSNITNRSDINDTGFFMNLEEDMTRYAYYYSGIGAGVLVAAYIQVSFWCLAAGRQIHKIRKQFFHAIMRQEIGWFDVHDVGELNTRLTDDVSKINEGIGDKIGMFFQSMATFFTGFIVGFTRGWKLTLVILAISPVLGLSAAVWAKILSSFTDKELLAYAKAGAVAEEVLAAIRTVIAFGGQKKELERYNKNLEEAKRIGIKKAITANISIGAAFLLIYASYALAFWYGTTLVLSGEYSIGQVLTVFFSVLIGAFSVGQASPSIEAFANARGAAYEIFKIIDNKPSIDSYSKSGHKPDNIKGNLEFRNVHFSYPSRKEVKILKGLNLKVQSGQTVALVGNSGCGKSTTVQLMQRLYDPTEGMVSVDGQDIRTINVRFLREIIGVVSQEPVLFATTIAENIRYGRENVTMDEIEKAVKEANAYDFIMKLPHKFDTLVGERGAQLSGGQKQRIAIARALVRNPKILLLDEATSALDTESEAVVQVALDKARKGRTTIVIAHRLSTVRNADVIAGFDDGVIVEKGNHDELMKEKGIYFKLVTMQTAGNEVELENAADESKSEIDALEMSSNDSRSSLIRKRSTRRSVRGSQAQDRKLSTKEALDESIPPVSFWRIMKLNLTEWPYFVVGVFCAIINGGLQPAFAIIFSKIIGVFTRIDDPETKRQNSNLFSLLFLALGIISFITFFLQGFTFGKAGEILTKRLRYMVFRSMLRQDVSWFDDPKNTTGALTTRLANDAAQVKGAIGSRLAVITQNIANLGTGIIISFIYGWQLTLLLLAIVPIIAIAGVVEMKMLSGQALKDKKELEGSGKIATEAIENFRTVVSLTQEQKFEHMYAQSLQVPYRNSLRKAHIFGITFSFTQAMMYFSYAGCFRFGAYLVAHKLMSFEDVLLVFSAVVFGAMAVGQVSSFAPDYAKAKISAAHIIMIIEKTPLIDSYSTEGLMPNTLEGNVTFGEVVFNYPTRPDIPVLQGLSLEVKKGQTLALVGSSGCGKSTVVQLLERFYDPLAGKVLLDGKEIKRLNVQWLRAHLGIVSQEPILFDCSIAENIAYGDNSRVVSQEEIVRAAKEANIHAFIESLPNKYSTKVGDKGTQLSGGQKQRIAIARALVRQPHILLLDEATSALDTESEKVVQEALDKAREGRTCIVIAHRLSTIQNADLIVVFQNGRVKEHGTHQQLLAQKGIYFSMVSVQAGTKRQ
Chain of MRP1 (P33527 whole entry): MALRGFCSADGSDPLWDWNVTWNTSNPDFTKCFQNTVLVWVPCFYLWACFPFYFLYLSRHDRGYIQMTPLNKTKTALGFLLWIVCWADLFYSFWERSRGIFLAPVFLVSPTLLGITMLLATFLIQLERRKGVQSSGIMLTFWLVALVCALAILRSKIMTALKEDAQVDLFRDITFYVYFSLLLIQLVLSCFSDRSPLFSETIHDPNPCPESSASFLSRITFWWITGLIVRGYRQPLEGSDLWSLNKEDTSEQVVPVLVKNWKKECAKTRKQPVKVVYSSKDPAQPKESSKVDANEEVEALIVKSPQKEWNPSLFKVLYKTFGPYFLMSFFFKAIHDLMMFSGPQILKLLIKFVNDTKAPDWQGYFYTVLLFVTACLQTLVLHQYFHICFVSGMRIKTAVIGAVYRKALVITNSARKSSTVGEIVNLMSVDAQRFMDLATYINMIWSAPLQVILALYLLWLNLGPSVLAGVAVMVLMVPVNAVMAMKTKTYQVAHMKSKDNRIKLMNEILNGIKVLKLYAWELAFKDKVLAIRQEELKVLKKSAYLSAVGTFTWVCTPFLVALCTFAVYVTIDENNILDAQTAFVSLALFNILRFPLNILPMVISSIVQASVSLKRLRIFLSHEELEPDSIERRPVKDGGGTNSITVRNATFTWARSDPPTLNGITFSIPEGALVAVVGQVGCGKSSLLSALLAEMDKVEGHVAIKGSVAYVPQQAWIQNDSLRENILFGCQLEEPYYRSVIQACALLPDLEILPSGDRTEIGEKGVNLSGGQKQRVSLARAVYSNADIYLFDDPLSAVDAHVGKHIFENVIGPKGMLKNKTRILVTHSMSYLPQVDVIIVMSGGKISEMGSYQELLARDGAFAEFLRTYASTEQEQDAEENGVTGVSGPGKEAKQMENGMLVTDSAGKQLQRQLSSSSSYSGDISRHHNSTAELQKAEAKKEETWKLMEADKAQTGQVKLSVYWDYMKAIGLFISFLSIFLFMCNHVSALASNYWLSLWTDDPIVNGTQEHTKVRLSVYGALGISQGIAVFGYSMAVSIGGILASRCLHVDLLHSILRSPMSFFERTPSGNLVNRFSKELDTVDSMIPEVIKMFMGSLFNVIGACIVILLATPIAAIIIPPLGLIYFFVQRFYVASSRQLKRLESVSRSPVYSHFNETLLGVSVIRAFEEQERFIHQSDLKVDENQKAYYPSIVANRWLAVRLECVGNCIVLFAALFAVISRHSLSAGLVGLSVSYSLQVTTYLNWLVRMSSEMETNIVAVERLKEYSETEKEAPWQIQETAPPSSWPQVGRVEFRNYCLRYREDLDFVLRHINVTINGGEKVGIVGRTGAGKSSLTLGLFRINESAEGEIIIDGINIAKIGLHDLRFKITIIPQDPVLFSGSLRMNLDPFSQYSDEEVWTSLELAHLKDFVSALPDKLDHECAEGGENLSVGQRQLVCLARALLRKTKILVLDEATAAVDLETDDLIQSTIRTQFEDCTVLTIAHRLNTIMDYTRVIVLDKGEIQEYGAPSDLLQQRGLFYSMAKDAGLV

Cc1ccc(-c2cc(C(F)(F)F)nn2-c2ccc(S(N)(=O)=O)cc2)cc1 [Celecoxib, celecoxib]
EC50 5637: > 50 µM
EC50 (J82; J82, 48 h): 11.6 ± 0.31 µM
EC50 (TCC sup; TCC-SUP): 15.7 ± 0.5 µM
EC50 (UMUC3; UMUC3, 48 h): 14.2 ± 0.7 µM
EC50 (UMUC-3- CX; UMUC3, 48 h): 16.3 ± 0.8 µM
EC50 (5637 si-CX): > 50 µM
Classification of P-gp interaction (Polli's classification) (P-gp; from drug transport, substrate transport inhibition and ATP cell depletion assays combined): P-gp unambiguous substrate
Papp A→B at 120 min, 100 µM (P-gp; human, Caco-2 monolayer, apical-basolateral flux, 120 min): 13.7 ×10⁻⁶ cm/s
Papp B→A at 120 min, 100 µM (P-gp; human, Caco-2 monolayer, basolateral-apical flux, 120 min): 103 ×10⁻⁶ cm/s
ATP cell depletion (Caco-2 cells): decreased ATP levels in a time- and dose-dependent fashion
Effect on MMC intracellular accumulation (UMUC-3 cells): not seen
Effect on MMC intracellular accumulation (UMUC-3-CX cells): increase of intracellular MMC concentration
EC50 (MRP1): 10.1 ± 0.5 µM
EC50 (BCRP): 24.1 ± 1.2 µM

CO[C@@]12[C@H](COC(N)=O)C3=C(C(=O)C(C)=C(N)C3=O)N1C[C@@H]1N[C@@H]12 [Mitomycin C]
EC50 (5637; 5637, compound alone): 0.93 ± 0.04 µM
EC50 (J82; J82, compound alone, 48 h): 0.64 ± 0.09 µM
EC50 (TCC sup; TCC sup, compound alone): 0.83 ± 0.07 µM
EC50 (UMUC3; UMUC3, compound alone, 48 h): 1.69 ± 0.09 µM
EC50 (UMUC-3- CX; UMUC3, UMUC-3-CX, compound alone, 48 h): 13 ± 1 µM
Fold improvement of MMC anti-proliferative activity by co-administration of celecoxib compared to MMC alone (UMUC-3- CX; UMUC-3-CX, celecoxib 1 μM, 5 μM and 10 μM, 48 h, listed as MMC): 2–3 fold
Anti-proliferative effect of MMC alone, fold greater in UMUC-3 than in UMUC-3-CX (UMUC-3- CX; UMUC-3 versus UMUC-3-CX, 48 h): 8 fold
EC50 (5637 si-CX; 5637 si-CX, compound alone): 0.62 ± 0.05 µM
